Data taken from article PMC8205030, “Methoxy and bromo scans on N-(5-methoxyphenyl) methoxybenzenesulphonamides reveal potent cytotoxic compounds, especially against the human breast adenocarcinoma MCF7 cell line” (Journal of Enzyme Inhibition and Medicinal Chemistry, 2021).

Test system: not given
Experiment: not given
Settings: not given
Work on COc1ccc(S(=O)(=O)Nc2cc(OC)cc(OC)c2)cc1 [Compound 1, N-(3,5-dimethoxyphenyl)-4-methoxybenzenesulphonamide] yielded a melting point of 115 to 122 °C.
For CCN(c1cc(OC)cc(OC)c1)S(=O)(=O)c1ccc(OC)cc1 [Compound 3, N-(3,5-dimethoxyphenyl)-N-ethyl-4-methoxybenzenesulphonamide], the melting point was 109 to 118 °C.
Work on COc1ccc(S(=O)(=O)N(CC#N)c2cc(OC)cc(OC)c2)cc1 [Compound 4, N-(cyanomethyl)-N-(3,5-dimethoxyphenyl)-4-methoxybenzenesulphonamide] yielded a melting point of 92 to 96 °C.
In the case of COc1ccc(S(=O)(=O)N(Cc2ccccc2)c2cc(OC)cc(OC)c2)cc1 [Compound 6, N-benzyl-N-(3,5-dimethoxyphenyl)-4-methoxybenzenesulphonamide], the melting point is reported as 146 to 150 °C.
For COc1ccc(S(=O)(=O)N(C(=O)OCc2ccccc2)c2cc(OC)cc(OC)c2)cc1 [Compound 7, Benzyl (3,5-dimethoxyphenyl)((4-methoxyphenyl)sulphonyl)carbamate], the melting point was 129 to 131 °C.
COc1ccc(S(=O)(=O)N(Cc2ccccc2)c2cc(OC)c(OC)cc2OC)cc1 [Compound 37, N-benzyl-4-methoxy-N-(2,4,5-trimethoxyphenyl)benzenesulphonamide] showed a melting point of 130 to 139 °C.

Test system: HeLa (human cervical carcinoma) cells
Experiment: Cell growth assay (XTT), HeLa
Type: cell-based
Settings: 72 h drug exposure, read-out: Antiproliferative activity IC50 HeLa
Protocol: (§1) The presence of mycoplasma was routinely checked with MycoAlert kit (Lonza-Cambrex) and only mycoplasma-free cells were used in the experiments. Tumour cell lines were kindly provided by Dr Faustino Mollinedo from Centro de Investigaciones Biológicas Margarita Salas, Madrid, Spain. To determine cell growth, cells in exponential growth phase were seeded (100 µL/well in 96-well plates) with appropriate cell concentration (1.5 × 10^4 cells/mL for MCF7, HeLa and HEK-293 and 3 × 10^4 cells/mL for HT-29) in complete DMEM or RPMI 1640 medium (see above) at 37 °C and 5% CO2 atmosphere. After 24 h incubation, to allow cells to attach to the plates, all compounds were added at 1 µM concentration (10 µL/well in 96-well plates) and the effect on the proliferation was evaluated 72 h post-treatment. Compounds showing antiproliferative effects at tested concentration were selected for IC50 calculation (50% inhibitory concentration compared to the untreated controls) from 10^−5 to 10^−10 M concentration. Nonlinear curves fitting the experimental data were carried out for each compound. […] A freshly prepared mixture solution of XTT labelling reagent with 0.02% (v/v) PMS (N-methyl-dibenzopyrazine methyl sulfate) electron coupling reagent was added to cells (50 µL/well in 96-well plates, the total volume of 160 µL/well) and were incubated during the corresponding time according to each cell line (4 h for MCF7 and HeLa and 6 h for HT-29 and HEK-293) in a humidified atmosphere (37 °C, 5% CO2). The absorbance of the formazan product generated was measured at a test wavelength of 450 nm using a multi-well plate reader (Ultra Evolution, Tecan, Männedorf, Suiza). Compounds were dissolved in DMSO and the final solvent concentrations never exceeded 0.5% (v/v). The control wells included treated cells with 0.5% (v/v) DMSO and the positive control. 10 µM verapamil was included as a control for the HT-29 cell line. Measurements were performed in triplicate, and each experiment was repeated three times.
Work on COc1ccc(S(=O)(=O)Nc2cccnc2Nc2ccc(O)cc2)cc1 [ABT-751, reference compound] yielded an IC50 of 0.388 µM.
In the case of COc1ccc(S(=O)(=O)Nc2cc(OC)cc(OC)c2)cc1 [Compound 1, N-(3,5-dimethoxyphenyl)-4-methoxybenzenesulphonamide], the IC50 is reported as > 1 µM.
For CCN(c1cc(OC)cc(OC)c1)S(=O)(=O)c1ccc(OC)cc1 [Compound 3, N-(3,5-dimethoxyphenyl)-N-ethyl-4-methoxybenzenesulphonamide], the IC50 was > 1 µM.
For COc1ccc(S(=O)(=O)N(CC#N)c2cc(OC)cc(OC)c2)cc1 [Compound 4, N-(cyanomethyl)-N-(3,5-dimethoxyphenyl)-4-methoxybenzenesulphonamide], the IC50 was > 1 µM.
In the case of CCOC(=O)CN(c1cc(OC)cc(OC)c1)S(=O)(=O)c1ccc(OC)cc1 [Compound 5, Ethyl N-(3,5-dimethoxyphenyl)-N-((4-methoxyphenyl)sulphonyl)glycinate], the IC50 is reported as > 1 µM.
With COc1ccc(S(=O)(=O)N(Cc2ccccc2)c2cc(OC)cc(OC)c2)cc1 [Compound 6, N-benzyl-N-(3,5-dimethoxyphenyl)-4-methoxybenzenesulphonamide] the IC50 was > 1 µM.
In the case of COc1ccc(S(=O)(=O)N(C(=O)OCc2ccccc2)c2cc(OC)cc(OC)c2)cc1 [Compound 7, Benzyl (3,5-dimethoxyphenyl)((4-methoxyphenyl)sulphonyl)carbamate], the IC50 is reported as > 1 µM.
Work on COc1ccc(S(=O)(=O)N(Cc2ccccc2)c2cc(OC)c(OC)cc2OC)cc1 [Compound 37, N-benzyl-4-methoxy-N-(2,4,5-trimethoxyphenyl)benzenesulphonamide] yielded an IC50 of 0.833 µM.

Biological target: T1, microtubular protein isolated from calf brain (Bos taurus, UniProt P81947+Q6B856)
T1 construct: isolated from calf brain according to the modified Shelanski method; from tissue; host or cells: calf brain
T1 sequence (Q6B856 whole entry): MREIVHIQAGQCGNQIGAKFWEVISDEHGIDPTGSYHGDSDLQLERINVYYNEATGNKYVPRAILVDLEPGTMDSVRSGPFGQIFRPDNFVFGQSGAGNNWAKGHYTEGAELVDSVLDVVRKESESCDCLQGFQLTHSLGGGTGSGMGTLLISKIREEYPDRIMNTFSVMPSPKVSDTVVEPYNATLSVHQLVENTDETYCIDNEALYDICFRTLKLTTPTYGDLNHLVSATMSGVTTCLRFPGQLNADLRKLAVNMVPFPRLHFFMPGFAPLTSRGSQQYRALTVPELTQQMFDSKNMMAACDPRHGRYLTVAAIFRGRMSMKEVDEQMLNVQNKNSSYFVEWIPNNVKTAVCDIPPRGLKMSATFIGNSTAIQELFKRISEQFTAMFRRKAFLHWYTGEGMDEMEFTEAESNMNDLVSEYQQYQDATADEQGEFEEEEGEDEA
T1 sequence (P81947 whole entry): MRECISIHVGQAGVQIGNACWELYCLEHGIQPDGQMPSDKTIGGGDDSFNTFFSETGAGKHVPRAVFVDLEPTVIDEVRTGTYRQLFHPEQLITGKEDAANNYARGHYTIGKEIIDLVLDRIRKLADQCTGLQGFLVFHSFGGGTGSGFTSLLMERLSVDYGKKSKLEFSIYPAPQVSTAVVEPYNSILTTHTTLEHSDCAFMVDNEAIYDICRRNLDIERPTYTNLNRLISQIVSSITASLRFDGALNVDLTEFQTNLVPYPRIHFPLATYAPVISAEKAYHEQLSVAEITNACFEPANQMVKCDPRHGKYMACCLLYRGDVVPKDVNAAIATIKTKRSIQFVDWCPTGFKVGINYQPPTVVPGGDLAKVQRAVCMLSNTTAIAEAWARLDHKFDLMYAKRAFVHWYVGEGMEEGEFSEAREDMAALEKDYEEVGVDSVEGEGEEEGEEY
Experiment: Inhibition of tubulin polymerisation (turbidity)
Type: biochemical
Settings: 10 µM compound, 1.5 mg/mL microtubular protein
Protocol: Microtubular protein was isolated from calf brain according to the modified Shelanski method[23]^,[24] by two cycles of temperature-dependent assembly/disassembly and stored at −80 °C. Before each use, protein concentration is determined by Bradford method[25] taking BSA as standard. Tubulin polymerisation was monitored using a Helios α spectrophotometer by measuring the increase in turbidity at 450 nm, caused by a shift from 4 °C to 37 °C, which allows the in vitro microtubular protein to depolymerise and to polymerise, respectively. The assay was carried out in quartz cuvettes containing 1.5 mg/mL microtubular protein and the ligand (except for control cuvette with only DMSO at the same concentration) in a mixture of 0.1 M MES buffer, 1 mM EGTA, 1 mM MgCl2, 1 mM β-ME, and 1.5 mM GTP at pH 6.7 (final volume 500 µL). Cuvettes were preincubated at 20 °C for 30 min, to allow ligand binding to tubulin, and subsequently cooled on ice for 10 min. Then, the experiment starts at 4 °C to establish the initial baseline. The assembly process was initiated by a temperature shift to 37 °C and the turbidity produced by tubulin polymerisation can be measured by an absorbance increase. After reaching a stable plateau, the temperature was switched back to 4 °C to return to the initial absorption values (to confirm the reversible nature of the monitored process and to determine whether or not the microtubular protein has stabilized). The difference in amplitude between the stable plateau and the initial baseline of the curves was taken as the degree of tubulin polymerisation for each experiment. […] All compounds were tested at 10 µM concentration. IC50 values were calculated for compounds that inhibit tubulin polymerisation more than 50% at 10 µM. […] All the measurements were carried out in at least two independent experiments using microtubular protein from different preparations.
For COc1ccc(S(=O)(=O)Nc2cccnc2Nc2ccc(O)cc2)cc1 [ABT-751, reference compound], the “TPI % 10 µM” value was 69%.
For COc1ccc(S(=O)(=O)Nc2cc(OC)cc(OC)c2)cc1 [Compound 1, N-(3,5-dimethoxyphenyl)-4-methoxybenzenesulphonamide], the “TPI % 10 µM” value was 0%.
For CCN(c1cc(OC)cc(OC)c1)S(=O)(=O)c1ccc(OC)cc1 [Compound 3, N-(3,5-dimethoxyphenyl)-N-ethyl-4-methoxybenzenesulphonamide], the “TPI % 10 µM” value was 0%.
With COc1ccc(S(=O)(=O)N(CC#N)c2cc(OC)cc(OC)c2)cc1 [Compound 4, N-(cyanomethyl)-N-(3,5-dimethoxyphenyl)-4-methoxybenzenesulphonamide] the “TPI % 10 µM” value was 0%.
In the case of CCOC(=O)CN(c1cc(OC)cc(OC)c1)S(=O)(=O)c1ccc(OC)cc1 [Compound 5, Ethyl N-(3,5-dimethoxyphenyl)-N-((4-methoxyphenyl)sulphonyl)glycinate], the “TPI % 10 µM” value is reported as 0%.
With COc1ccc(S(=O)(=O)N(Cc2ccccc2)c2cc(OC)cc(OC)c2)cc1 [Compound 6, N-benzyl-N-(3,5-dimethoxyphenyl)-4-methoxybenzenesulphonamide] the “TPI % 10 µM” value was 0%.
For COc1ccc(S(=O)(=O)N(C(=O)OCc2ccccc2)c2cc(OC)cc(OC)c2)cc1 [Compound 7, Benzyl (3,5-dimethoxyphenyl)((4-methoxyphenyl)sulphonyl)carbamate], the “TPI % 10 µM” value was 0%.
In the case of COc1ccc(S(=O)(=O)N(Cc2ccccc2)c2cc(OC)c(OC)cc2OC)cc1 [Compound 37, N-benzyl-4-methoxy-N-(2,4,5-trimethoxyphenyl)benzenesulphonamide], the “TPI % 10 µM” value is reported as 7%.

Same assay, conditions: in vitro tubulin polymerisation inhibition; read-out: TPI IC50
COc1ccc(S(=O)(=O)Nc2cccnc2Nc2ccc(O)cc2)cc1 [ABT-751, reference compound] showed an IC50 of 4.4 µM.
For COc1ccc(S(=O)(=O)Nc2cc(OC)cc(OC)c2)cc1 [Compound 1, N-(3,5-dimethoxyphenyl)-4-methoxybenzenesulphonamide], the IC50 was > 10 µM.
For CCN(c1cc(OC)cc(OC)c1)S(=O)(=O)c1ccc(OC)cc1 [Compound 3, N-(3,5-dimethoxyphenyl)-N-ethyl-4-methoxybenzenesulphonamide], the IC50 was > 10 µM.
In the case of COc1ccc(S(=O)(=O)N(CC#N)c2cc(OC)cc(OC)c2)cc1 [Compound 4, N-(cyanomethyl)-N-(3,5-dimethoxyphenyl)-4-methoxybenzenesulphonamide], the IC50 is reported as > 10 µM.
For CCOC(=O)CN(c1cc(OC)cc(OC)c1)S(=O)(=O)c1ccc(OC)cc1 [Compound 5, Ethyl N-(3,5-dimethoxyphenyl)-N-((4-methoxyphenyl)sulphonyl)glycinate], the IC50 was > 10 µM.
With COc1ccc(S(=O)(=O)N(Cc2ccccc2)c2cc(OC)cc(OC)c2)cc1 [Compound 6, N-benzyl-N-(3,5-dimethoxyphenyl)-4-methoxybenzenesulphonamide] the IC50 was > 10 µM.
For COc1ccc(S(=O)(=O)N(C(=O)OCc2ccccc2)c2cc(OC)cc(OC)c2)cc1 [Compound 7, Benzyl (3,5-dimethoxyphenyl)((4-methoxyphenyl)sulphonyl)carbamate], the IC50 was > 10 µM.
For COc1ccc(S(=O)(=O)N(Cc2ccccc2)c2cc(OC)c(OC)cc2OC)cc1 [Compound 37, N-benzyl-4-methoxy-N-(2,4,5-trimethoxyphenyl)benzenesulphonamide], the IC50 was > 10 µM.

Test system: HT-29 (human colon carcinoma) cells
Experiment: Cell growth assay (XTT), HT-29, alone or with verapamil
Type: cell-based
Settings: Homo sapiens, HT-29; 72 h drug exposure, XTT; read-out: Antiproliferative activity IC50 HT-29
Protocol: as §1, with “Compounds showing antiproliferative effects at tested concentration were selected for IC50 calculation (50% inhibitory concentration compared to the untreated controls) from 10^−5 to 10^−10 M concentration.” left out
For COc1ccc(S(=O)(=O)Nc2cc(OC)cc(OC)c2)cc1 [Compound 1, N-(3,5-dimethoxyphenyl)-4-methoxybenzenesulphonamide], the IC50 was > 1 µM.
With CCN(c1cc(OC)cc(OC)c1)S(=O)(=O)c1ccc(OC)cc1 [Compound 3, N-(3,5-dimethoxyphenyl)-N-ethyl-4-methoxybenzenesulphonamide] the IC50 was > 1 µM.
In the case of COc1ccc(S(=O)(=O)N(CC#N)c2cc(OC)cc(OC)c2)cc1 [Compound 4, N-(cyanomethyl)-N-(3,5-dimethoxyphenyl)-4-methoxybenzenesulphonamide], the IC50 is reported as > 1 µM.
In the case of CCOC(=O)CN(c1cc(OC)cc(OC)c1)S(=O)(=O)c1ccc(OC)cc1 [Compound 5, Ethyl N-(3,5-dimethoxyphenyl)-N-((4-methoxyphenyl)sulphonyl)glycinate], the IC50 is reported as > 1 µM.
With COc1ccc(S(=O)(=O)N(Cc2ccccc2)c2cc(OC)cc(OC)c2)cc1 [Compound 6, N-benzyl-N-(3,5-dimethoxyphenyl)-4-methoxybenzenesulphonamide] the IC50 was > 1 µM.
In the case of COc1ccc(S(=O)(=O)N(C(=O)OCc2ccccc2)c2cc(OC)cc(OC)c2)cc1 [Compound 7, Benzyl (3,5-dimethoxyphenyl)((4-methoxyphenyl)sulphonyl)carbamate], the IC50 is reported as > 1 µM.
COc1ccc(S(=O)(=O)N(Cc2ccccc2)c2cc(OC)c(OC)cc2OC)cc1 [Compound 37, N-benzyl-4-methoxy-N-(2,4,5-trimethoxyphenyl)benzenesulphonamide] showed an IC50 of 1.25 µM.

Test system: MCF7 (human breast carcinoma) cells
Experiment: Cell growth assay (XTT), MCF7
Type: cell-based
Settings: Homo sapiens, MCF7; 72 h drug exposure, XTT; read-out: Antiproliferative activity IC50 MCF7
Protocol: as §1
In the case of COc1ccc(S(=O)(=O)Nc2cccnc2Nc2ccc(O)cc2)cc1 [ABT-751, reference compound], the IC50 is reported as 0.18 µM.
With COc1ccc(S(=O)(=O)Nc2cc(OC)cc(OC)c2)cc1 [Compound 1, N-(3,5-dimethoxyphenyl)-4-methoxybenzenesulphonamide] the IC50 was > 1 µM.
For CCN(c1cc(OC)cc(OC)c1)S(=O)(=O)c1ccc(OC)cc1 [Compound 3, N-(3,5-dimethoxyphenyl)-N-ethyl-4-methoxybenzenesulphonamide], the IC50 was > 1 µM.
In the case of COc1ccc(S(=O)(=O)N(CC#N)c2cc(OC)cc(OC)c2)cc1 [Compound 4, N-(cyanomethyl)-N-(3,5-dimethoxyphenyl)-4-methoxybenzenesulphonamide], the IC50 is reported as > 1 µM.
In the case of CCOC(=O)CN(c1cc(OC)cc(OC)c1)S(=O)(=O)c1ccc(OC)cc1 [Compound 5, Ethyl N-(3,5-dimethoxyphenyl)-N-((4-methoxyphenyl)sulphonyl)glycinate], the IC50 is reported as > 1 µM.
For COc1ccc(S(=O)(=O)N(Cc2ccccc2)c2cc(OC)cc(OC)c2)cc1 [Compound 6, N-benzyl-N-(3,5-dimethoxyphenyl)-4-methoxybenzenesulphonamide], the IC50 was > 1 µM.
In the case of COc1ccc(S(=O)(=O)N(C(=O)OCc2ccccc2)c2cc(OC)cc(OC)c2)cc1 [Compound 7, Benzyl (3,5-dimethoxyphenyl)((4-methoxyphenyl)sulphonyl)carbamate], the IC50 is reported as > 1 µM.
